Test results published in ChEMBL document CHEMBL5154933, “Development of Lipo-γ-AA Peptides as Potent Antifungal Agents” (J Med Chem, 2022).
Converted amounts (≈) assume the structure as drawn. The source made the active and inactive calls. No cut-off for these calls is given here.

How the values were obtained:
[1] = test system: Candida albicans; assay: Fungicidal activity against Candida albicans SC5314 at 8 times MIC50 measured after 10 mins by time-kill assay; format: functional, organism-based
[2] = test system: Cryptococcus deuterogattii; assay: Antifungal activity against Cryptococcus gattii VGII R265 assessed as fungal growth inhibition by broth microdilution assay; format: functional, Cryptococcus gattii species complex
[3] = test system: Candida albicans; assay: Antifungal activity against Candida albicans CA17 assessed as fungal growth inhibition by broth microdilution assay; format: functional
[4] = test system: Candida albicans; assay: Increase in intracellular fluconazole accumulation in fluconazole-resistant Candida albicans CARG5 at 1 ug/ml incubated for 1 hr by fluorescence based analysis; format: functional, cell-based; conditions: dose 1.0 µg/ml
[5] = Selectivity ratio of HC50 for hemolytic activity in human RBC to MIC for antifungal activity against Aspergillus fumigatus AF293; format: toxicity; conditions: red blood cells (erythrocytes)
[6] = test system: Candida albicans; assay: Antifungal activity against Candida albicans CARG5 assessed as fungal growth inhibition by broth microdilution assay; format: functional
[7] = Selectivity ratio of HC50 for hemolytic activity in human RBC to MIC for antifungal activity against Cryptococcus neoformans 5-FC; format: toxicity; conditions: red blood cells (erythrocytes)
[8] = test system: Candida albicans; assay: Fungicidal activity against Candida albicans SC5314 assessed as fungal growth inhibition incubated for 24 hrs by resazurin dye based assay; format: functional
[9] = Selectivity ratio of HC50 for hemolytic activity in human RBC to MIC for antifungal activity against Mucor racemosus R715; format: toxicity; conditions: red blood cells (erythrocytes)
[10] = Selectivity ratio of HC50 for hemolytic activity in human RBC to MIC for antifungal activity against Candida parapsilosis ATCC 22019; format: toxicity; conditions: red blood cells (erythrocytes)
[11] = Selectivity ratio of HC50 for hemolytic activity in human RBC to MIC for antifungal activity against Aspergillus fumigatus shjt40; format: toxicity; conditions: red blood cells (erythrocytes)
[12] = Selectivity ratio of HC50 for hemolytic activity in human RBC to MIC for antifungal activity against Candida albicans CA17; format: toxicity; conditions: red blood cells (erythrocytes)
[13] = test system: Cryptococcus neoformans; assay: Antifungal activity against Cryptococcus neoformans 5-FC assessed as fungal growth inhibition by broth microdilution assay; format: functional
[14] = Selectivity ratio of HC50 for hemolytic activity in human RBC to MIC for antifungal activity against Cryptococcus neoformans H99; format: toxicity; conditions: red blood cells (erythrocytes)
[15] = test system: Candida albicans; assay: Induction of reactive oxygen species generation in Candida albicans SC5314 assessed as increase in fluorescence intensity incubated for 1 hr by DCF-DA staining based method; format: functional, organism-based; conditions: DDE = dose-dependent effect
[16] = test system: Cryptococcus neoformans; assay: Antifungal activity against Cryptococcus neoformans H99 assessed as fungal growth inhibition by broth microdilution assay; format: functional
[17] = Selectivity ratio of HC50 for hemolytic activity in human RBC to MIC for antifungal activity against Mucor racemosus MZ140; format: toxicity; conditions: red blood cells (erythrocytes)
[18] = Toxicity against Galleria mellonella larva infected with Candida albicans SC5314 assessed as increase in survival rate at 8 mg/kg measured for 14 days; format: organism-based; conditions: in vivo, 336 h, time 14 day
[19] = test system: Candida albicans; assay: Antifungal activity against Candida albicans SC5314 assessed as fungal growth inhibition by broth microdilution assay; format: functional
[20] = Hemolytic activity in human RBC incubated for 1 hr by microplate reader method; format: toxicity, cell-based, Erythrocyte; conditions: red blood cells (erythrocytes)
[21] = Selectivity ratio of HC50 for hemolytic activity in human RBC to MIC for antifungal activity against Candida albicans CARG5; format: toxicity; conditions: red blood cells (erythrocytes)
[22] = test system: Cell membrane; assay: Induction of membrane permeabilization in Candida albicans SC5314 assessed as distruption of fungal cell membrane by measuring PI positive cells at 8 times MIC measured after 1 hrs by propidium iodide and DAPI staining based fluorescence microscopic analysis; format: subcellular
[23] = test system: Candida albicans; assay: Antifungal activity against Candida albicans 28A assessed as fungal growth inhibition by broth microdilution assay; format: functional
[24] = test system: Aspergillus fumigatus; assay: Antifungal activity against Aspergillus fumigatus AF293 assessed as fungal growth inhibition by broth microdilution assay; format: functional
[25] = test system: Candida albicans; assay: Effect on efflux pump function in Candida albicans CARG5 assessed as increase in Nile red fluorescence at 1 ug/ml incubated for 1 hr by FACScan flow cytometer analysis; format: functional; conditions: dose 1.0 µg/ml
[26] = test system: Mucor racemosus; assay: Antifungal activity against Mucor racemosus R715 assessed as fungal growth inhibition by broth microdilution assay; format: functional
[27] = test system: Candida albicans; assay: Synergistic antifungal activity against fluconazole-resistant Candida albicans CARG5 assessed as fractional inhibitory concentration index incubated for 24 hrs by checkerboard broth microdilution assay; format: functional
[28] = test system: Candida albicans; assay: Potentiation of antifungal activity against fluconazole-sensitive Candida albicans YEM12 overexpressing efflux pump MDR1 gene assessed as fold reduction in fluconazole MIC at 1 ug/ml incubated for 24 hrs by checkerboard broth microdilution assay; format: functional; conditions: dose 1 µg/ml
[29] = test system: Pichia kudriavzevii; assay: Antifungal activity against Candida krusei ATCC6258 assessed as fungal growth inhibition by broth microdilution assay; format: functional
[30] = test system: Candida parapsilosis; assay: Antifungal activity against Candida parapsilosis ATCC 22019 assessed as fungal growth inhibition by broth microdilution assay; format: functional; conditions: Lodderomyces parapsilosis
[31] = Selectivity ratio of HC50 for hemolytic activity in human RBC to MIC for antifungal activity against Candida krusei ATCC6258; format: toxicity; conditions: red blood cells (erythrocytes)
[32] = test system: Candida albicans; assay: Potentiation of antifungal activity against fluconazole-sensitive Candida albicans YEM13 overexpressing efflux pump MDR1 gene assessed as fold reduction in fluconazole MIC at 1 ug/ml incubated for 24 hrs by checkerboard broth microdilution assay; format: functional; conditions: dose 1 µg/ml
[33] = test system: Cryptococcus neoformans; assay: Fungicidal activity against Cryptococcus neoformans H99 at 8 times of MIC measured after 10 to 25 mins by time-kill assay; format: functional, organism-based; conditions: time 10-25 min
[34] = test system: Cell membrane; assay: Induction of membrane permeabilization in Candida albicans SC5314 assessed as damage and rupture of fungal cell membrane at 8 times MIC incubated for 4 hrs by scanning electron microscopic analysis; format: subcellular
[35] = Selectivity ratio of HC50 for hemolytic activity in human RBC to MIC for antifungal activity against Candida albicans SC5314; format: toxicity; conditions: red blood cells (erythrocytes)
[36] = Selectivity ratio of HC50 for hemolytic activity in human RBC to MIC for antifungal activity against Candida albicans 28A; format: toxicity; conditions: red blood cells (erythrocytes)
[37] = test system: Aspergillus fumigatus; assay: Antifungal activity against Aspergillus fumigatus shjt40 assessed as fungal growth inhibition by broth microdilution assay; format: functional
[38] = Cytotoxicity against HEK293T cells measured after 48 hrs by CCK8 assay; format: toxicity, cell-based, HEK-293T; conditions: human
[39] = test system: Mucor racemosus; assay: Antifungal activity against Mucor racemosus MZ140 assessed as fungal growth inhibition by broth microdilution assay; format: functional
[40] = test system: Candida albicans; assay: Antifungal activity against Candida albicans CARG5 infected in BALB/c mouse surgical wound model assessed as reduction in fungal burden smeared on wound at 8 mg/kg administered every 12 hrs for 48 hrs in presence of fluconazole; format: functional, organism-based
[41] = Selectivity ratio of HC50 for hemolytic activity in human RBC to MIC for antifungal activity against Cryptococcus gattii R265; format: toxicity; conditions: red blood cells (erythrocytes)
[42] = test system: Cryptococcus neoformans; assay: Fungicidal activity against Cryptococcus neoformans H99 at 4 times MIC50 measured after 10 to 25 mins by time-kill assay; format: functional, organism-based; conditions: time 10-25 min
[43] = test system: Candida albicans; assay: Synergistic antifungal activity against fluconazole-resistant Candida albicans CARG5 assessed as reduction in fluconazole MIC at 1 microg/ml incubated for 24 hrs by checkerboard broth microdilution assay ( Rvb = > 128 microg/ml); format: functional; conditions: dose 1 µg/ml

CCCCCCCCCCCCCCCC(=O)N[C@@H](CCCN)C(=O)N[C@@H](Cc1ccccc1)CN(CC(N)=O)C(=O)CCN
Activity [1]: Active
MIC50 [2]: 2 µg/mL (≈ 3.17 µM)
MIC50 [3]: 2 µg/mL (≈ 3.17 µM)
Activity [4]: Active
selectivity ratio [5]: ≤ 125
MIC50 [6]: 2 µg/mL (≈ 3.17 µM)
selectivity ratio [7]: ≤ 125
MFC [8]: 4 µg/mL (≈ 6.34 µM)
selectivity ratio [9]: ≤ 125
selectivity ratio [10]: ≤ 125
selectivity ratio [11]: ≤ 125
selectivity ratio [12]: ≤ 125
MIC50 [13]: 2 µg/mL (≈ 3.17 µM)
selectivity ratio [14]: ≤ 125
Activity [15]: Dde
MIC50 [16]: 2 µg/mL (≈ 3.17 µM)
selectivity ratio [17]: ≤ 125
Activity [18]: Non-Toxic
MIC50 [19]: 2 µg/mL (≈ 3.17 µM)
HC50 at 1 h [20]: > 250 µg/mL
selectivity ratio [21]: ≤ 125
Activity [22]: Active
MIC50 [23]: 2 µg/mL (≈ 3.17 µM)
MIC50 [24]: 4 µg/mL (≈ 6.34 µM)
Activity [25]: Active
MIC50 [26]: 4 µg/mL (≈ 6.34 µM)
fractional inhibitory concentration index (FICI) [27]: <=0.5
fold change (FC) [28]: 2
MIC50 [29]: 2 µg/mL (≈ 3.17 µM)
MIC50 [30]: 2 µg/mL (≈ 3.17 µM)
selectivity ratio [31]: ≤ 125
fold change (FC) [32]: 8
Activity [33]: Active
Activity [34]: Active
selectivity ratio [35]: ≤ 125
selectivity ratio [36]: ≤ 125
MIC50 [37]: 4 µg/mL (≈ 6.34 µM)
IC50 at 48 h [38]: 32.2 µg/mL (≈ 51 µM)
MIC50 [39]: 8 µg/mL (≈ 12.7 µM)
Activity [40]: Active
selectivity ratio [41]: ≤ 125
Activity [42]: Active
MIC50 [43]: 1 µg/mL
